# In US11396522B2, “Bis-acetal-based substrates for imaging exo-glycosidase activity” (ALECTOS THERAPEUTICS INC., priority 2017, dated 2022):
# Assays:
# GBA3 = biological target: T1, GBA3 (Homo sapiens, UniProt Q9H227); assay: In vitro kinetic assay with GBA3; assay type: biochemical; details: GBA enzymes at 50 nM
# T1 construct: purchased R&D Systems
# T1 sequence (Q9H227 1-469): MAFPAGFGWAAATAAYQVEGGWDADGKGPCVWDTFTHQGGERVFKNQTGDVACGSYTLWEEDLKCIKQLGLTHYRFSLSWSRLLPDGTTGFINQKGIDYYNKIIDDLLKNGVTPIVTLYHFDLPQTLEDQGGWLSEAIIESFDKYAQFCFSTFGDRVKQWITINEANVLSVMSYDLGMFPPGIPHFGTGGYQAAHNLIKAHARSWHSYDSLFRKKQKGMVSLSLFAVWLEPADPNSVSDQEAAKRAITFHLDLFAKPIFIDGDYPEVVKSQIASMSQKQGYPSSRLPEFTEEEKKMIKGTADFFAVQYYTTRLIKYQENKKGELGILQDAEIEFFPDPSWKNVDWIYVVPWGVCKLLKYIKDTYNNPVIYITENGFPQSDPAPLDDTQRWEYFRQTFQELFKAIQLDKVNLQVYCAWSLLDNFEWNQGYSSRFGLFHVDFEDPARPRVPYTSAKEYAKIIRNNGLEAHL
# Procedure: (§1) For some experiments, fluorescence kinetic assays were performed using a Varian Cary Eclipse Spectrophotometer set for 335/493 nm excitation/emission wavelengths. Slits were set at 10 nm and the detector was set on Medium voltage. Enzymatic reactions with human OGA were carried out in PBS at 37° C. and were started by addition of hOGA (WT, Full-length, expressed in E. coli. as previously described) in a total volume of 160 μL (Starna sub-micro Fluorometer cuvette). For measurements of rates using different concentrations of substrates, a hOGA concentration of 100 nM was used. For hOGA titration, 25 μM of Glyco-BABS were added to various concentration of hOGA. […] EDANS standard curve was established using endpoint fluorescence measurements of serial dilutions of EDANS in the relevant buffer using the same instrument parameters. Inner-Filter effect measurements were carried out in cuvette by measuring fluorescence of several concentrations of EDANS in presence of various concentrations of GlcNAc-BABS. Kinetics with Glc-BABS and GBA enzymes (GBA1 and GBA3 purchased from R&D Systems), kinetics with GALC (R&D systems) and Gal-BABS, pH stability, quenching efficiency, some inner-filter effect experiments and lysates experiments were carried out using a Molecular Devices SpectraMax i3× plate reader. […]
# GBA1 = biological target: T2, GBA1 (Homo sapiens, UniProt P04062); assay: In vitro kinetic assay with GBA1; assay type: biochemical; parameters: purchased R&D Systems; details: GBA enzymes at 50 nM
# T2 sequence (P04062 40-536): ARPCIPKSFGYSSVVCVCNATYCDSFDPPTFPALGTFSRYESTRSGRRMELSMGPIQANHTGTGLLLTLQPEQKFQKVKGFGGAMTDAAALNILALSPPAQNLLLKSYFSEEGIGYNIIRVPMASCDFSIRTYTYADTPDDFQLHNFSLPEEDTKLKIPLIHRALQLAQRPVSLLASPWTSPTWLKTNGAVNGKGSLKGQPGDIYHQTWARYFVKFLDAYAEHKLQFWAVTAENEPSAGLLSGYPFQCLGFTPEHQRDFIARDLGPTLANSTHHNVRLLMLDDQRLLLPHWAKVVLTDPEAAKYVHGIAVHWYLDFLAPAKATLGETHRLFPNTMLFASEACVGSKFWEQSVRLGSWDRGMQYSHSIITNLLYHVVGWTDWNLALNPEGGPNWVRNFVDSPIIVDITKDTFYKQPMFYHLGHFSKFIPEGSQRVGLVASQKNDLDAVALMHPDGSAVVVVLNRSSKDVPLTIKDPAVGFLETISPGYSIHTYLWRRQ
# Procedure: as §1
# GBA2 = biological target: T3, GBA2 (Homo sapiens, UniProt Q9HCG7); assay: In vitro kinetic assay with GBA2; assay type: biochemical; details: GBA enzymes at 50 nM
# T3 sequence (Q9HCG7 1-927): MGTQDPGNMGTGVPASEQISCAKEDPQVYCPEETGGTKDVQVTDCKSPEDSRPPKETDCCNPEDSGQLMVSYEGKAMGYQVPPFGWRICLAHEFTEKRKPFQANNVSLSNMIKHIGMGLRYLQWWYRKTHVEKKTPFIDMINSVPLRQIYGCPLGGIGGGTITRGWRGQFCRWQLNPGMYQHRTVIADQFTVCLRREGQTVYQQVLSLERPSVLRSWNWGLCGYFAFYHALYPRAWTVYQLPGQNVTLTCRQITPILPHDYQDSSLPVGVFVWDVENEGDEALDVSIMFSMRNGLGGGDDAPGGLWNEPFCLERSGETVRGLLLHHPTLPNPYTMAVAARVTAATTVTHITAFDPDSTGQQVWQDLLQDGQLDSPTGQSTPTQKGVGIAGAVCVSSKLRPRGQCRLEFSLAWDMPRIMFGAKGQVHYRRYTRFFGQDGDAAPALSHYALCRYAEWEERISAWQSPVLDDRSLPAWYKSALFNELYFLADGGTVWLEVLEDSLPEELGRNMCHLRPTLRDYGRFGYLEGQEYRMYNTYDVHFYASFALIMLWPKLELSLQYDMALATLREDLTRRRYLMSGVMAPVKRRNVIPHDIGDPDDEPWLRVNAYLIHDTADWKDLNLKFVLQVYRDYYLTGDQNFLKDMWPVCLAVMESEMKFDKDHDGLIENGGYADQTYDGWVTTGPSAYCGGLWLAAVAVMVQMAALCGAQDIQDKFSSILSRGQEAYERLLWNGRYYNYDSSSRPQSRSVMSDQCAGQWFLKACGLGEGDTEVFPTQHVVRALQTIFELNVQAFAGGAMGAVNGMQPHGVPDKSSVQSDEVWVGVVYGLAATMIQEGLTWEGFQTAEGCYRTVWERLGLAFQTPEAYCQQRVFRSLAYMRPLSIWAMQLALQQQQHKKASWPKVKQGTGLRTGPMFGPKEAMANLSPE
# [1] = pH stability of Glyco-BABS; assay type: physicochemical; details: 5 μM, up to 72 h, pH 2 to 10
compound,measurement,setting,value
"CN(C)c1ccc(/N=N/c2ccc(C(=O)NCc3cn(CCOCCO[C@H](O[C@@H]4O[C@H](CO)[C@@H](O)[C@H](O)[C@H]4O)[C@@](C)(O)C(=O)NCCNc4cccc5c(S(=O)(=O)O)cccc45)nn3)cc2)cc1 [Compound 6, 5-((2-((2R,3R)-3-(2-(2-(4-((4-((E)-(4-(dimethylamino)phenyl)diazenyl)benzamido)methyl)-1H-1,2,3-triazol-1-yl)ethoxy)ethoxy)-2-hydroxy-2-methyl-3-(((2S,3R,4S,5S,6R)-3,4,5-trihydroxy-6-(hydroxymethyl)tetrahydro-2H-pyran-2-yl)oxy)propanamido)ethyl)amino)naphthalene-1-sulfonic Acid]",turnover by GBA3,GBA3,not turned over
same,turnover by GBA1,GBA1,not turned over
same,turnover by GBA2,GBA2,not turned over
same,pH stability (increase of fluorescence),[1],no significant increase of fluorescence
